{"source": "paper PMC5941251", "about": "(Molecular Pharmaceutics, 2018)", "origin": "cited, not measured here", "data": [{"smiles": "CC1(C)C(/C=C/C=C/C=C/C=C2\\N(CCCCS(=O)(=O)O)c3ccc4ccccc4c3C2(C)C)=[N+](CCCCS(=O)(=O)[O-])c2ccc3ccccc3c21", "note": "[ICG, indocyanine green]", "values": [{"measurement": "risk of anaphylactic shock", "value": "0.05–0.2%"}]}]}
